Reference: US20220054559A1, “COMPOSITIONS AND METHODS FOR ENHANCING EXERCISE ENDURANCE” (PRESIDENT AND FELLOWS OF HARVARD COLLEGE, priority 2019, published 2022)
“Also recorded” adds a separate entry of the source.

Legend:
Format in all cases: in vivo, mouse
[1] = 13C3-lactate flux tracing after tail-vein injection (LC-MS)
Method: It was next determined whether systemic lactate is capable of crossing the epithelial barrier into the gut lumen. […] At sacrifice, serum and plasma were immediately collected following cardiac puncture, and intestinal luminal contents were collected by removing the colon and cecum from the mice and gently sampling the inner surface of the tissue.
20% w/w ^13C3 sodium lactate (Cambridge Isotope Laboratories™) was diluted with PBS to a concentration of 400 mM in PBS. […] […] […] Whole blood was divided into two samples to obtain both serum and plasma, which was flash frozen in liquid nitrogen and stored at −80° C.
Immediately following cardiac puncture, mice were dissected to remove colon and cecum, and the contents were removed by squeezing with sterilized forceps into pre-weighed tubes. Contents were immediately flash frozen in liquid nitrogen. […]
Samples were analyzed for lactate and propionate by a Metabolomics Platform. LC-MS metabolomics were performed as previously described. 23 LC-MS traces were identified and integrated to quantify presence of ^13C0- and ^13C3-lactate isotopes.

mice = test: Colorectal propionate instillation, treadmill run to exhaustion; details: 200 μL 150 mM sodium propionate in PBS into the colon 30 minutes prior to exercise, n=8, P=0.03
Method: (§1) Treadmilling followed the same protocol as above. Mice were fasted 7 hours prior to exercise, to normalize metabolic profiles. 30 minutes prior to exercise, mice were treated with 200 μL of either PBS vehicle alone (n=8) or 150 mM sodium propionate in PBS (n=8) using a flexible gavage needle to introduce 200 μL of solution into the colon. Mice were run to exhaustion as above. This protocol was repeated for 3 consecutive days. On the first day of treatment, serum was collected 40 minutes post-exhaustion via tail-vein bleed and measured using the Ciraplex™ multiplex mouse cytokine assay (Aushon BioSystems™)

inflammatory cytokines = test: Serum inflammatory cytokines after treadmill run, intrarectal propionate; details: serum taken 40 minutes after treadmill running, intrarectal propionate versus vehicle
Method: as §1

[2] = 100 μL of 400 mM intravenously via tail vein, sacrifice 12 minutes after injection, LC-MS

Row | Structure (SMILES) | 13C3-labelled lactate detected in tissues [1, 2] | 13C3-labelled propionate detected in tissues [1, 2] | earliest time at which serum lactate levels returned to baseline after tail-vein injection ([1]; tail-vein injection) [min] | treadmill runtime versus pH-matched placebo vehicle (mice) | serum inflammatory cytokine levels (inflammatory cytokines)
1 | [13CH3][13CH](O)[13C](=O)[O-].[Na+] (centres unmarked) [^13C3 sodium lactate] | present in both the serum and plasma as well as in the lumen of the colons and ceca | No ^13C3-labelled propionate was detected in these tissues | 12 |  | 
2 | CCC(=O)[O-].[Na+] [propionate, sodium propionate] |  |  |  | increased treadmill runtime; also recorded: improves maximum run time | no significant differences in cytokine levels were found
